Measured values taken from patent publication EP4722213A1, “NITROGEN-CONTAINING FUNCTIONAL GROUP-SUBSTITUTED PYRIDAZINOPYRIDONE DERIVATIVE AND USE THEREOF” (Sichuan Huiyu Pharmaceutical Co., Ltd., priority 2023, dated 2024).

Tests used:
[1] = Mouse pharmacokinetic test; format: in vivo; conditions: plasma, female Balb/c mice, IV 1 mg/kg, PO 10 mg/kg via gavage
Method: Female Balb/c mice, weighing 19-21 g, were divided into two groups based on the principle of similar body weight, with 9 mice in each of the IV group and the PO group (for cross blood collection). The IV group was administered the test compound at a dose of 1 mg/kg via intravenous injection, and the PO group was administered the test compound at a dose of 10 mg/kg via gavage. Whole blood was collected from the IV group before administration and at 0.083, 0.25, 0.5, 1, 2, 4, 6, 8, and 24 h after administration; for the PO group, whole blood was collected before administration and at 0.25, 0.5, 1, 2, 4, 6, 8, and 24 h after administration. The blood samples were placed in K2-EDTA anticoagulant tubes, centrifuged (4°C) within 30 minutes to separate plasma, and stored at -80°C for subsequent testing. During sample processing, an appropriate amount of acetonitrile containing an internal standard was used for protein precipitation, vortexed, and after centrifugation, the supernatant was taken for injection into LC-MS/MS for detection. Based on the measured plasma drug concentrations, the main pharmacokinetic parameters were calculated to evaluate its pharmacokinetic behavior. The main pharmacokinetic parameters were analyzed by the non-compartmental model using WinNonLin 8.3 software.

CYP3A4 = target: T1, CYP3A4 (Homo sapiens, UniProt P08684); test: Inhibition of hepatic drug-metabolizing enzymes in human liver microsomes (substrates midazolam and testosterone); format: in vitro ADME
T1 construct: human liver microsomes were used as the CYP450 enzyme source; from tissue; host or cells: human liver microsomes
T1 sequence (P08684 whole entry): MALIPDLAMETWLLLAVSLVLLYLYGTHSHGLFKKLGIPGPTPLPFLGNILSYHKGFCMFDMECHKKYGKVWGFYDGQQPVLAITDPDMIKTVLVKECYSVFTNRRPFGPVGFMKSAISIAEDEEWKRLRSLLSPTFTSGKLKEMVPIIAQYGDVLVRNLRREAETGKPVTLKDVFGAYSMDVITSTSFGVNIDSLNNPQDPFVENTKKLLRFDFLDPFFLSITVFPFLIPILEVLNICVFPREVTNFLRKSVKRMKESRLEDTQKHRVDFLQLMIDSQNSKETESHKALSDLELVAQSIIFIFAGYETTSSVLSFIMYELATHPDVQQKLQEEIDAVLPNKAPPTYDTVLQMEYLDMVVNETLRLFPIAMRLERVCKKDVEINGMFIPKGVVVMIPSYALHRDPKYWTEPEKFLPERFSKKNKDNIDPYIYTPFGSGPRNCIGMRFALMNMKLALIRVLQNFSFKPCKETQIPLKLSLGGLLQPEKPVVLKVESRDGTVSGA
From the text: (§1) The main site of drug metabolism is the liver, and the main component of the mixed-function oxidase system present in the liver is the CYP450 enzyme. This enzyme system causes most clinically observed drug-drug interactions, which in turn leads to an increased incidence of adverse drug reactions. CYP450 is a group of supergene family composed of many isozymes, wherein CYP3A4 acts as a major metabolizing enzyme and is involved in the metabolism of nearly half of clinically used drugs. Similarly, CYP2C9 and CYP2C19 also act as important metabolizing enzymes and are involved in the metabolism of various drugs clinically. Therefore, evaluating the risk of drug-drug interactions by testing the inhibitory activity of compounds on CYP450 enzymes at an early stage can improve the safety of medication use.
(§2) In the present disclosure, human liver microsomes were used as the CYP450 enzyme source. The specific probe substrates for each CYP isoenzyme (wherein CYP3A4 used two substrates, midazolam and testosterone, denoted as CYP3A4-M and CYP3A4-T respectively) were incubated with a series of concentrations of the test compound in the presence of the cofactor NADPH. The production amount of metabolites of probe substrates in the incubation system was determined by LC-MS/MS, and the IC50 values of the test compound against each CYP450 enzyme subtype were calculated to evaluate its inhibitory effect on each CYP450 enzyme subtype. During the experiment, 49 µL of PBS, 50 µL of probe substrate, and 50 µL of human liver microsome working solution were sequentially added to the incubation system, followed by the addition of 1 µL of the test compound working solution at each concentration, and the mixture was mixed well. After pre-incubation at 37°C for 5 min, 50 µL of NADPH was added to initiate the reaction. After incubation for the corresponding time, an appropriate amount of ice-cold acetonitrile containing an internal standard was added to terminate the reaction. The mixture was vortexed to mix well, centrifuged, and the supernatant was taken. The supernatant was injected into LC-MS/MS to determine the production amount of metabolites of the probe substrate. Taking the enzyme activity at the 0-concentration point (characterized by the production amount of metabolites) as 100%, the percentage of residual enzyme activity of metabolites at different concentrations of the test compound was calculated. IC50 was calculated by the residual enzyme activity using Graphpad Prism software.

Rat pharmacokinetic test = format: in vivo; conditions: plasma, male SD rats, IV 1 mg/kg, PO 5 mg/kg via gavage
Method: Male SD rats, weighing 200-250 g, were used and divided into two groups based on the principle of similar body weight, with 3 rats in each of the IV group and the PO group. The IV group was administered the test compound at a dose of 1 mg/kg via intravenous injection, and the PO group was administered the test compound at a dose of 5 mg/kg via gavage. Whole blood was collected from the IV group respectively before administration and at 0.083, 0.25, 0.5, 1, 2, 4, 6, 8, and 24 h after administration; for the PO group, whole blood was collected before administration and at 0.25, 0.5, 1, 2, 4, 6, 8, and 24 h after administration. The blood samples were placed in K2-EDTA anticoagulant tubes, centrifuged (4°C) within 30 min to separate plasma, and stored at -80°C for subsequent testing. During sample processing, an appropriate amount of acetonitrile containing an internal standard was used for protein precipitation, vortexed, and after centrifugation, the supernatant was taken for injection into LC-MS/MS for detection. Based on the measured plasma drug concentrations, the main pharmacokinetic parameters were calculated to evaluate its pharmacokinetic behavior. The main pharmacokinetic parameters were analyzed by the non-compartmental model using WinNonLin 8.3 software.

[2] = Rat liver microsomal metabolic stability; format: in vitro ADME; conditions: rat liver microsomes
Procedure, shortened: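 Rat liver microsomes (1 mg/mL working solution) with test compound (working solution 100 µM) were pre-incubated 5 min at 37 °C, then started with NADPH (4.0 mM working solution). Residual compound measured by LC-MS/MS over time. T1/2 taken from first-order decay, scaled to CLint and hepatic CL with fu = 1.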

CYP2C9 = target: T2, CYP2C9 (Homo sapiens, UniProt P11712); test: Inhibition of hepatic drug-metabolizing enzymes in human liver microsomes; format: in vitro ADME; conditions: human liver microsomes; read-out: Inhibitory activity on drug-metabolizing enzymes (IC50, µM) CYP2C9
T2 construct: human liver microsomes were used as the CYP450 enzyme source; from tissue; host or cells: human liver microsomes
T2 sequence (P11712 whole entry): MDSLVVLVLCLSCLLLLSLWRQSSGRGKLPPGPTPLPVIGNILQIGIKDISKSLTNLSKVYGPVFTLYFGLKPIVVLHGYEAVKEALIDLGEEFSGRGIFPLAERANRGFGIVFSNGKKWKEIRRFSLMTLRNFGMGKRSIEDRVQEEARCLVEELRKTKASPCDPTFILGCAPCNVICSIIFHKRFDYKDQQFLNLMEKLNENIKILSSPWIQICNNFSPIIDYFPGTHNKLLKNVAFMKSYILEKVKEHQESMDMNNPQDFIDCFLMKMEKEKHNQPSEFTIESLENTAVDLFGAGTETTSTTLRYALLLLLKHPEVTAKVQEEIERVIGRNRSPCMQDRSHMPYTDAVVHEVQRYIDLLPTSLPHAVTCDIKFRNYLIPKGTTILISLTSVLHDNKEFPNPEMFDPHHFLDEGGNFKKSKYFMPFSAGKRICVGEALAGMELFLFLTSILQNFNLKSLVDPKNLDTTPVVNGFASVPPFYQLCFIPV
From the text: as §1, §2

CYP2C19 = target: T3, CYP2C19 (Homo sapiens, UniProt P33261); test: as above; format: in vitro ADME; conditions: human liver microsomes; read-out: Inhibitory activity on drug-metabolizing enzymes (IC50, µM) CYP2C19
T3 construct: human liver microsomes were used as the CYP450 enzyme source; from tissue; host or cells: human liver microsomes
T3 sequence (P33261 whole entry): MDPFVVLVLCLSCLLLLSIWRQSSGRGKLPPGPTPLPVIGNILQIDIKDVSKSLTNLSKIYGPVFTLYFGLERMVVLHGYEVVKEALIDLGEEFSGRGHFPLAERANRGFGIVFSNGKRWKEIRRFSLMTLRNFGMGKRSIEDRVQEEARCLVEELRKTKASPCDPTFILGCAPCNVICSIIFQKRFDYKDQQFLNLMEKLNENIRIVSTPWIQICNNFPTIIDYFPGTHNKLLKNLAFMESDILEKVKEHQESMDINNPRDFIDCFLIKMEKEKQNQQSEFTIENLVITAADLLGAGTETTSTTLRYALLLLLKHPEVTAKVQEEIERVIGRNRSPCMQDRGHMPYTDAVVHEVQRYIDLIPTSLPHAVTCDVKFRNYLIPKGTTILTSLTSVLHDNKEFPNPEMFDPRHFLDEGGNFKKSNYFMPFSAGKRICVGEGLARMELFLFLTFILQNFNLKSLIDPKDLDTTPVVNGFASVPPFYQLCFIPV
From the text: as §1, §2

In the case of `Cc1c(C#N)cccc1[C@@H](C)Nc1nnc(C)c2cnc(N3CCOCC3)cc12` [MRTX0902, reference compound], the bioavailability [1] is reported as 40.4%, the IC50 (CYP3A4; Inhibitory activity on drug-metabolizing enzymes (IC50, µM) CYP3A4-M, substrate midazolam) is reported as 6.9 µM and the IC50 (CYP3A4; Inhibitory activity on drug-metabolizing enzymes (IC50, µM) CYP3A4-T, substrate testosterone) is reported as 8.75 µM. It also gave a bioavailability (Rat pharmacokinetic test) of 22.6%, a half-life at 1 µM ([2]; NADPH, 37°C) of 2.9 min and a CLint scaled at 1 µM ([2]; calculated from T1/2, fu defaulted to 1, read-out: CL(liver)) of 51.9 mL/min/kg. It also gave an IC50 (CYP2C9) of 4 µM and an IC50 (CYP2C19) of 8.62 µM.
